Source: patent publication US7364719B2, “Vasoregulating compounds and methods of their use” (The United States of America as represented by the …, priority 2002, dated 2008)
Bridges are numbered along the chain shown (N, C = ends). Where no end group is shown, it is not given here.

Assays:
blood pressure = details: Kitamura et al. 2001; cited from earlier work
anesthetized rats = details: Watanabe et al. 1996; cited from earlier work
[1] = biological target: T1, AM receptor in Rat2 cells (Rattus norvegicus, UniProt Q63118); test: Measurement of cAMP response in Rat2 cells (radioimmunoassay); format: cell-based; details: for intracellular elevation of cAMP: peptides applied 5 minutes, versus PBS control
T1 construct: Rat2 is a fibroblast cell line that contains a well characterized AM receptor; host or cells: Rat2 rat fibroblast cell line
T1 sequence (Q63118 23-464 limits assumed): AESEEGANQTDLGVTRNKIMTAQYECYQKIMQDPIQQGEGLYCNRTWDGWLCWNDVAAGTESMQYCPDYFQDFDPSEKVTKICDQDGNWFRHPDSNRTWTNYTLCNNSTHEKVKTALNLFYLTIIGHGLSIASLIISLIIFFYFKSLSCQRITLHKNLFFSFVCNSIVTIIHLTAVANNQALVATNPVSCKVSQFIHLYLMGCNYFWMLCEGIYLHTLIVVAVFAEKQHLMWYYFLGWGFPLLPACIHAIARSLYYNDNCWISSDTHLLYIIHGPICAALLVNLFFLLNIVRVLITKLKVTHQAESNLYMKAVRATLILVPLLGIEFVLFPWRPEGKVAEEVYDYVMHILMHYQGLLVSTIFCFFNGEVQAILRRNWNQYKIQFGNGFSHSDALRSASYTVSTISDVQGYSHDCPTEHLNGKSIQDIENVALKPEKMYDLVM
T1 sequence (Q9JHJ1 46-182 partner): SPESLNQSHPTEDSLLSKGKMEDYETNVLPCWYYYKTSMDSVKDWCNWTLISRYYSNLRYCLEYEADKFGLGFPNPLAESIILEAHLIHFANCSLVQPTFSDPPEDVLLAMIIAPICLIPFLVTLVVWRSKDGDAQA
Description: Measurement of cAMP response. The rat fibroblast cell line Rat2 was obtained from the American Tissue Culture Collection (Manassas, Va.) and kept in RPMI-1640 medium supplemented with 10% fetal calf serum (Invitrogen). Accumulation of intracellular cAMP was measured as described (Pío et al., J. Biol. Chem. 276:12292-12300, 2001). Cells were seeded in 24-well plates at 2×10^4 cells/well and incubated at 37° C. in 5% CO2 until they reached 80% confluency. Before the assay, cells were incubated for 15 minutes in TIS medium (RPMI-1640 plus 10 μg/ml transferrin, 10 μg/ml insulin, and 50 nM sodium selenite) containing 1% bovine serum albumin, 1 mg/ml bacitracin, and 100 μM isobutylmethylxanthine. Peptides were applied in the same medium for 5 minutes at the indicated concentrations in a volume of 250 μl. The reaction was terminated by adding an equal volume of ice-cold ethanol. cAMP contents were measured using the Biotrac cAMP radioimmunoassay (Amersham).
To determine if AM peptide fragments elicit their hypotensive and hypertensive effects via the AM receptor, their cAMP response in fibroblasts was examined.

[2] = system: Male 10-week-old Lewis/ssncr rats; test: Blood pressure measurements in rats after intravenous peptide injection; format: in vivo, rat
Description: Blood pressure measurements. Male 10-week-old Lewis/ssncr rats (SAIC, Frederic, Md.) were anesthetized with 3% halothane, intubated, and maintained with 1% halothane in 70% nitrous oxide and 30% oxygen (VMS Anesthesia Machine, Matrx, Medical Inc., Orchard Park, N.Y.) at 82 strokes/minute. Rectal temperature was monitored through the experiment. A PE50 catheter was placed on the right femoral artery and arterial blood pressure was recorded through a P23XL transducer (Grass Instruments, Quincy, Mass.). Peptides were injected into the right femoral vein through another catheter. To confirm that changes in blood pressure were not an artifact of the anesthesia, the experiments were repeated in conscious animals. After catheters were placed under anesthesia, the animals were allowed to recover for 24-48 hours before taking blood pressure measurements. All procedures were performed under a protocol approved by the National Institutes of Health.

Human recombinant MMP-2 = biological target: T2, Human recombinant MMP-2 (Homo sapiens, UniProt P08253); test: Digestion reactions with MMP-2 (gel, HPLC); format: biochemical; details: low salt collagenase buffer, absence of factor H
T2 construct: made in house
T2 sequence (P08253 110-660): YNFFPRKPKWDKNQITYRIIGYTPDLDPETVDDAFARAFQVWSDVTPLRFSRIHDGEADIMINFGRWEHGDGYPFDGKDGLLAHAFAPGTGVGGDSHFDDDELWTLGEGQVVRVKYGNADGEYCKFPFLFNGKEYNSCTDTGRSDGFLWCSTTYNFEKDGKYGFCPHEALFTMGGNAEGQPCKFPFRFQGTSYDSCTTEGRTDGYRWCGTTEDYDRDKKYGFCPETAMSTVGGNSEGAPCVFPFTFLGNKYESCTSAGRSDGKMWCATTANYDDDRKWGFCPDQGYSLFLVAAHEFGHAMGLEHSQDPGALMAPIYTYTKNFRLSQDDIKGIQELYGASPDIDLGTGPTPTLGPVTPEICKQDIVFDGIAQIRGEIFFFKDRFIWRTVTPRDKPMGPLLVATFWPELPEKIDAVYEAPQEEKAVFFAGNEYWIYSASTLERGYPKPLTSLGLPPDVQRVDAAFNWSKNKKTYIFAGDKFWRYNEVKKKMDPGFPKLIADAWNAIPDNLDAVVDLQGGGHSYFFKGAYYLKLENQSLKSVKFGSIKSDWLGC
Description: (§1) Digestion reactions. Synthetic AM (240 μg/reaction) was exposed to 11.5 μg MMP-2 or MMP-9 in low salt collagenase buffer (50 mM Tris, pH 7.5, 50 mM NaCl, 0.02% Brig) for different periods of time in the presence or absence of 6 mg factor H. These amounts correspond to an approximate molar ratio of 1:250:250 (enzyme:AM:factor H). The reaction was stopped with EDTA. Digestion reactions were run in 16% Tricine gels (Invitrogen, Carlsbad, Calif.) under reducing conditions and stained with Gel Code Blue Stain Reagent (Pierce, Rockford, Ill.).
High performance liquid chromatography (HPLC). Digestion reactions were also loaded into an analytical reverse phase R2H 5×100 mm HPLC column (Poros, Applied Biosystems, Foster City, Calif.) in a 10-60% acetonitrile gradient over 10 minutes and the protein peaks eluted from the column were detected with a wavelength of 230 nm.

Human recombinant MMP-9 = biological target: T3, Human recombinant MMP-9 (Homo sapiens, UniProt P14780); test: Digestion reactions with MMP-9 (gel); format: biochemical; details: low salt collagenase buffer
T3 construct: made in house
T3 sequence (P14780 94-707): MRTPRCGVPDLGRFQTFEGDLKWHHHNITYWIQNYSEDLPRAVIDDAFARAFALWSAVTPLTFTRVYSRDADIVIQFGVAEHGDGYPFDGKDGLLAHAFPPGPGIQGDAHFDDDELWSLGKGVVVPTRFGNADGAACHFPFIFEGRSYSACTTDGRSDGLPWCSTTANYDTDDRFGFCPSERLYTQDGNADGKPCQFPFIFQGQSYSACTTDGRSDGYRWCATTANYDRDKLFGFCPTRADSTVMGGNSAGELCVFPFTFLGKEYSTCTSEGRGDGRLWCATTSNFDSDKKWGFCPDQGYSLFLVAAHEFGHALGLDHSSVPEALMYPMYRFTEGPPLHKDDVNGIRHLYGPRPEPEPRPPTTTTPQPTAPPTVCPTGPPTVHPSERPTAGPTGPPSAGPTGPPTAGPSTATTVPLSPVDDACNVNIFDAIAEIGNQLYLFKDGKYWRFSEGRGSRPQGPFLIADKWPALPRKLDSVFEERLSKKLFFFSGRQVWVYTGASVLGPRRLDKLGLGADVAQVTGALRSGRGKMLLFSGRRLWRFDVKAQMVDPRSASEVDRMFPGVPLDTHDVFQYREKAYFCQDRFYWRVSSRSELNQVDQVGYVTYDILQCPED
Description: as §1

hypertensive SHR rats = test: Arterial blood pressure in hypertensive SHR rats after IP MMP-2 inhibitor; format: in vivo, rat; details: 5 mg IP
[3] = anesthetized rats, injection into femoral vein

AM(11-26): AM fragment purified from bovine adrenal medulla (Kitamura et al.) (LRSFGCRFGTCTVQKL; ends and bridges not checked; cysteine pairing not given here; UniProt P35318 105-120, looked up, fragment)
duration of elevation in blood pressure (blood pressure): about 70 seconds | vasopressor activity (blood pressure): induced vasopressor activity

AM-(1-25)-NH2: synthetic N-terminal AM fragment (Watanabe et al.) (YRQSMNNFQGLRSFGCRFGTCTVQK-NH2; ends and bridges not checked; UniProt P35318 95-119, looked up, fragment)
vasoactivity (vasodepressor or vasopressor) (anesthetized rats): vasodepressor activity

adrenomedullin [AM]
intracellular elevation of cAMP [1]: significant elevation of cAMP | reduction of blood pressure (hypotension) ([2]; anesthetized rats, injection into femoral vein, n=5, untreated systolic 125±10 mm Hg): 55±5 mm Hg | degradation by MMP-2 (Human recombinant MMP-2): rapidly cleaves | degradation by MMP-9 (Human recombinant MMP-9): resistance

AM-(1-21)-NH2: synthetic N-terminal AM fragment (Watanabe et al.) (YRQSMNNFQGLRSFGCRFGTC-NH2; ends and bridges not checked; UniProt P35318 95-115, looked up, fragment)
vasoactivity (vasodepressor or vasopressor) (anesthetized rats): vasopressor activity

AM(11-22): peptide consisting of amino acids 11-22 of adrenomedullin (LRSFGCRFGTCT; PEPTIDE (1)..(12) Active peptide AM(11-22), corresponding to positions 11-22 of adrenomedullin (SEQ ID NO 3) and positions 105-116 of preproadrenomedullin (SEQ ID NO 2).; listed as Homo sapiens)
effect on cAMP response elicited by intact AM (1-52) ([1]; different (increasing) concentrations of peptide added with AM): did not affect the response | vasopressor effect over basal levels ([2]; anesthetized rats, injection into femoral vein, n=5): 71±24 mm Hg | duration of activity ([2]; vasoconstrictor activity in rats): on the order of hours

AM(11-52): AM fragment generated by MMP-2 digestion; maintains intramolecular ring structure and α-amide; synthesized (LRSFGCRFGTCTVQKLAHQIYQFTDKDKDNVAPRSKISPQGY-NH2; disulfide 6-11 (inferred); UniProt P35318 105-146, looked up, fragment)
intracellular elevation of cAMP [1]: equal to the one induced by the intact AM molecule | effect on blood pressure [2, 3]: induced hypotension

AM(23-52): AM fragment generated by MMP-2 digestion; retains only the terminal amide; synthesized (VQKLAHQIYQFTDKDKDNVAPRSKISPQGY-NH2; UniProt P35318 117-146, looked up, fragment)
effect on blood pressure [2, 3]: do not have any discernible effect

acetyl-AM-(16-36)-NH2: synthetic N-terminal AM fragment (Watanabe et al.) (Ac-CRFGTCTVQKLAHQIYQFTDK-NH2; ends and bridges not checked; UniProt P35318 110-130, looked up, fragment)
vasoactivity (vasodepressor or vasopressor) (anesthetized rats): vasopressor activity

AM-(1-31)-NH2: synthetic N-terminal AM fragment (Watanabe et al.) (YRQSMNNFQGLRSFGCRFGTCTVQKLAHQIY-NH2; ends and bridges not checked; UniProt P35318 95-125, looked up, fragment)
vasoactivity (vasodepressor or vasopressor) (anesthetized rats): vasopressor activity

AM(8-52): AM fragment generated by MMP-2 digestion; maintains intramolecular ring structure and α-amide; synthesized (FQGLRSFGCRFGTCTVQKLAHQIYQFTDKDKDNVAPRSKISPQGY-NH2; disulfide 9-14 (inferred); UniProt P35318 102-146, looked up, fragment)
intracellular elevation of cAMP [1]: equal to the one induced by the intact AM molecule | effect on blood pressure [2, 3]: induced hypotension

AM-(1-25)-OH: synthetic N-terminal AM fragment (Watanabe et al.) (YRQSMNNFQGLRSFGCRFGTCTVQK-OH; ends and bridges not checked; UniProt P35318 95-119, looked up, fragment)
vasoactivity (vasodepressor or vasopressor) (anesthetized rats): vasopressor activity

acetyl-AM-(16-21)-NH2: synthetic N-terminal AM fragment (Watanabe et al.) (Ac-CRFGTC-NH2; ends and bridges not checked; UniProt P35318 110-115, looked up, fragment)
vasoactivity (vasodepressor or vasopressor) (anesthetized rats): vasopressor activity

AM(29-52): AM fragment generated by MMP-2 digestion; retains only the terminal amide; synthesized (QIYQFTDKDKDNVAPRSKISPQGY-NH2; UniProt P35318 123-146, looked up, fragment)
effect on blood pressure [2, 3]: do not have any discernible effect

AM(11-28): AM fragment generated by MMP-2 digestion; has the loop but not the carboxy end; synthesized (LRSFGCRFGTCTVQKLAH; disulfide 6-11 (inferred); UniProt P35318 105-122, looked up, fragment)
effect on blood pressure [2, 3]: do not have any discernible effect

CNC(=O)[C@H](Cc1ccccc1)NC(=O)[C@H](CC(C)C)[C@H](CSc1cccs1)C(=O)NO [BB-94, Batimastat]
drop in blood pressure (hypertensive SHR rats): about 80 mm of Hg | time after injection at which blood pressure dropped (hypertensive SHR rats): 20 min | time blood pressure remained at the reduced level (hypertensive SHR rats): at least 2.5 hours
